Among the test systems are HOP-18 NSCLC; T-47D breast; UO-31 renal; CAKI-1 renal; OVCAR-4 ovarian; HL-60(TB) leukemia; M19-MEL melanoma; DMS 273 small cell lung; HS 578T breast; BT-549 breast; KM20L2 colon; NCI/ADR-RES ovarian.
What all share (test): growth of human tumour cells (NCI), 48 h

We go through ten molecules from PubChem BioAssay (NCI).

Structures are written as SMILES. Several values for one entry are separate records, joined by “and”; a condition that tells them apart may be missing. Equal values may be shown once.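 All cell lines were grown in 96-well plates and treated with compound for 48 hours. The concentration for 50% growth inhibition is given as GI50. Definition used: TGI = concentration required for complete inhibition of growth.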

With `C[C@H]1CCC2C(OC(=O)[C@@H]2CN(C)C)[C@]2(C)C(=O)C=CC12O` (some centres undefined), the TGI was determined as 38.9 µM in the experiment on HOP-18 NSCLC; 13.2 µM in the experiment on T-47D breast; 30.8 µM with UO-31 renal; 24.2 µM in the experiment on CAKI-1 renal; 33.4 µM with OVCAR-4 ovarian; 7.18 µM in the experiment with HL-60(TB) leukemia. In addition, the TGI in the experiment with M19-MEL melanoma was 20.3 µM; in the experiment on DMS 273 small cell lung it was 18.8 µM; in the experiment on HS 578T breast it was over 100 µM; in the experiment with BT-549 breast it was 25.2 µM; with KM20L2 colon, 17.7 µM.
As for `CCN1CCC(O)(/C=C/c2ccccc2)C(C(=O)/C=C/c2ccccc2)C1` (centres undefined), the TGI in the experiment on HOP-18 NSCLC was 18.1 µM; in the experiment on UO-31 renal, 21.7 µM; in the experiment on CAKI-1 renal, 6.44 µM; in the experiment on OVCAR-4 ovarian, 8.01 µM; in the experiment on HL-60(TB) leukemia, 4.08 µM; in the experiment with M19-MEL melanoma it was 4.18 µM. The TGI with DMS 273 small cell lung amounted to 3.27 µM; in the experiment on KM20L2 colon it was 7.22 µM.
For `COc1cc(CCc2ccncc2)cc(OC)c1OC`, the TGI with HOP-18 NSCLC, in the experiment with UO-31 renal, in the experiment with CAKI-1 renal, with OVCAR-4 ovarian, in the experiment with HL-60(TB) leukemia and in the experiment with M19-MEL melanoma was over 100 µM throughout. The TGI in the experiment on DMS 273 small cell lung and in the experiment with KM20L2 colon was over 100 µM throughout.
As for `Cc1c(Cl)cccc1NC(=O)C(=O)c1c(O)c2ccc(O)cc2oc1=O`, the TGI in the experiment with HOP-18 NSCLC, with UO-31 renal, in the experiment on CAKI-1 renal, with OVCAR-4 ovarian, in the experiment on HL-60(TB) leukemia and in the experiment on M19-MEL melanoma was over 100 µM in each case. In addition, the TGI in the experiment with DMS 273 small cell lung and with KM20L2 colon was over 100 µM throughout.
Turning to `CC(CC(=O)Nc1ccc(NC(=O)CC(C)N=NC(N)=O)cc1)N=NC(N)=O` (centres undefined), the TGI with HOP-18 NSCLC, in the experiment on UO-31 renal, with CAKI-1 renal, in the experiment with OVCAR-4 ovarian, in the experiment on HL-60(TB) leukemia and in the experiment on M19-MEL melanoma was over 100 µM in each case. Also, the TGI in the experiment with DMS 273 small cell lung and with KM20L2 colon was over 100 µM each time.
On to `C#C[C@@H](CCCC)OC(=O)N[C@H](C)c1ccccc1`, for which the TGI was over 100 µM with HOP-18 NSCLC; 65.4 µM in the experiment with UO-31 renal; over 100 µM in the experiment with CAKI-1 renal; over 100 µM in the experiment on OVCAR-4 ovarian; 42 µM in the experiment on HL-60(TB) leukemia; over 100 µM in the experiment with M19-MEL melanoma. Moreover, the TGI with DMS 273 small cell lung and with KM20L2 colon was over 100 µM in each case.
As for `CN(C)C(=S)/N=c1\ss/c(=N\S(=O)(=O)c2ccccc2)n1C`, the TGI in the experiment on HOP-18 NSCLC, in the experiment with UO-31 renal, in the experiment on CAKI-1 renal, in the experiment with OVCAR-4 ovarian, with HL-60(TB) leukemia and in the experiment with M19-MEL melanoma was over 100 µM in each case. Moreover, the TGI in the experiment with DMS 273 small cell lung and in the experiment on KM20L2 colon was over 100 µM each time.
On to `COc1ccc(/C=C2/CSC/C(=C/c3ccc(OC)c(OC)c3)C2=O)cc1OC`, for which the TGI in the experiment with HOP-18 NSCLC is 17.3 µM; with T-47D breast it was 4.94 µM; in the experiment on UO-31 renal it was 10.6 µM; with CAKI-1 renal, 12.8 µM; in the experiment with OVCAR-4 ovarian, 5.49 µM; with HL-60(TB) leukemia, over 100 µM. Also, the TGI with M19-MEL melanoma amounted to 6.63 µM; with DMS 273 small cell lung, 3.09 µM; in the experiment on KM20L2 colon it was 6.53 µM.
Consider `CC/C(C)=C1\CCC(CN(C)C)C1=O` (centres undefined), for which the TGI with HOP-18 NSCLC was determined as 32.2 µM; in the experiment on UO-31 renal, 35.4 µM; in the experiment on CAKI-1 renal it was 4.36 µM; in the experiment with OVCAR-4 ovarian it was 32 µM; with HL-60(TB) leukemia it was 43.7 µM; with M19-MEL melanoma, 32.6 µM. Besides, the TGI in the experiment on DMS 273 small cell lung stood at 33.3 µM; with KM20L2 colon, 47.5 µM.
In the case of `COC(=O)Nc1nc2ccc(C(=O)c3cccs3)cc2[nH]1`, the GI50 is 0.0388 µM and 0.0664 µM in the experiment with NCI/ADR-RES ovarian; over 100 µM in the experiment with T-47D breast; 3.23 µM with UO-31 renal; 0.232 µM with CAKI-1 renal; 0.0897 µM in the experiment on HL-60(TB) leukemia; 0.0244 µM and 0.0882 µM with HS 578T breast. For the same molecule, the TGI in the experiment with NCI/ADR-RES ovarian is over 100 µM; in the experiment on HOP-18 NSCLC it was over 100 µM; with T-47D breast it was over 100 µM; in the experiment on UO-31 renal, 38.2 µM and > 100 µM; in the experiment on CAKI-1 renal it was 56.3 µM and > 100 µM; in the experiment on OVCAR-4 ovarian, 70.9 µM and > 100 µM. In addition, the TGI in the experiment with HL-60(TB) leukemia was 0.0753 µM and 0.415 µM; in the experiment with M19-MEL melanoma, over 100 µM; with DMS 273 small cell lung, over 100 µM; in the experiment on HS 578T breast it was 50.9 µM and > 100 µM; in the experiment on BT-549 breast it was 4.33 µM; in the experiment on KM20L2 colon, 0.0377 µM.
